ChEMBL document CHEMBL4811279, “N-Substituted pyrrolopyrimidines and purines as p90 ribosomal S6 protein kinase-2 (RSK2) inhibitors” (Bioorg Med Chem, 2021)

The compounds below were run against Ribosomal protein S6 kinase alpha-3 (Homo sapiens) (UniProt P51812) (assay: Inhibition of RSK2 (unknown origin) using Ulight-rpS6 as substrate at 10 uM incubated for 1 hr in presence of ATP by TR FRET assay).
Chain of Ribosomal protein S6 kinase alpha-3 (Homo sapiens) (P51812 whole entry): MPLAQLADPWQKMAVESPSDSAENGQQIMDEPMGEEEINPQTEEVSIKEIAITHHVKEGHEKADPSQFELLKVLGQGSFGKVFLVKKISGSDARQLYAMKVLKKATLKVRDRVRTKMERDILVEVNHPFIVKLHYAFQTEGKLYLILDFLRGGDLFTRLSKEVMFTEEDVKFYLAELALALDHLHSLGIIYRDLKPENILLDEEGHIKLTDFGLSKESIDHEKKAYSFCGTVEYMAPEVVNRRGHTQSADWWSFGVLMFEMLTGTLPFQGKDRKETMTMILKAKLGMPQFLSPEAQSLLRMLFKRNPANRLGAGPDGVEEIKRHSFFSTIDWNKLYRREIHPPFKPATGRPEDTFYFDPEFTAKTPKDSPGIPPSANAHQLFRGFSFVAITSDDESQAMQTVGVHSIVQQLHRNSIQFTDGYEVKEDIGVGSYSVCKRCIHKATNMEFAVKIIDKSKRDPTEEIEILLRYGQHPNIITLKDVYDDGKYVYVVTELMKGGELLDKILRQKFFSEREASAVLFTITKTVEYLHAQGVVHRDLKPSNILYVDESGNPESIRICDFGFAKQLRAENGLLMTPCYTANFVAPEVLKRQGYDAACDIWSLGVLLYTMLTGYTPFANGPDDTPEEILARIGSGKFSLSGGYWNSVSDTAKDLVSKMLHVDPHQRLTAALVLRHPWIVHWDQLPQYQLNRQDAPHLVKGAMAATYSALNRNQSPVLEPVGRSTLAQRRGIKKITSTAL

inhibition [%] | Structure (SMILES)
49 | Oc1c(F)cc(Nc2ncc3ncn(-c4ccc(-c5ccccc5)cc4)c3n2)cc1F
77 | Oc1c(F)cc(Nc2ncc3cc[nH]c3n2)cc1F
42 | Oc1c(F)cc(Nc2ncc3ncn(-c4ccc(OCc5ccccc5)cc4)c3n2)cc1F

Continued, compound first:

Structure (SMILES) | inhibition [%]
Oc1c(F)cc(Nc2ncc3ncn(-c4cccc(OCc5ccccc5)c4)c3n2)cc1F | 63
Oc1c(F)cc(Nc2ncc3nc[nH]c3n2)cc1F | 67
